From patent publication US20050282840A1, “Methods of modulating neurotrophin-mediated activity” (PainCeptor Pharma Corporation, priority 2004, published 2005) come the findings set out here.

Experiment [1] has as its target T1, p75^NTR receptors (PC12 cells) (Rattus norvegicus, UniProt P07174).
T1 construct: endogenous in cells; host or cells: PC12 cells
T1 sequence (P07174 30-425): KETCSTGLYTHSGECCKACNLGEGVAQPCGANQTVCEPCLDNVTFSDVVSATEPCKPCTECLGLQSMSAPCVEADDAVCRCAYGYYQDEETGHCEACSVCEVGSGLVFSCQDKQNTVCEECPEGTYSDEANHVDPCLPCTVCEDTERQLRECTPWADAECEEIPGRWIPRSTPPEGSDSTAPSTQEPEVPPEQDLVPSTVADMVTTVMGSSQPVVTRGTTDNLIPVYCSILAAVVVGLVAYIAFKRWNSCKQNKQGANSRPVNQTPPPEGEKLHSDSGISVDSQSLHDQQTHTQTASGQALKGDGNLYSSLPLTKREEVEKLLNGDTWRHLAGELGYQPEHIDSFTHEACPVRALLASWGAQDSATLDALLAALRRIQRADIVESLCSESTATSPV
T1 sequence (P23560 129-247 partner): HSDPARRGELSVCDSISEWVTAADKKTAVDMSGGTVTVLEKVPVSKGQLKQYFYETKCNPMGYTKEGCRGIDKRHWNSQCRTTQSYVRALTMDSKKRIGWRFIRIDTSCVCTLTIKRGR
Briefly: Basic screening assay: binding of 125I-BDNF to PC12 cells. Particulars: read-out: BDNF Activity % Maximal Binding. The gist of the method: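 4×10^6 PC12 cells incubated 2 h at 4° C, rotating, with 0.5 nM ^125I-BDNF (final) and compound at 50 μM, in duplicate or more. Bound ligand separated through 10% glycerol by centrifugation and counted by gamma counter; specific binding is Bmax minus NSB; inhibitors followed up for EC50.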

Experiment [2] has as its system p75^NTR receptors (PC12 cells). Briefly: Basic screening assay: binding of 125I-NGF to PC12 cells. Particulars: Table 4; test compound 50 μM; 0.5 nM 125I-NGF; PC12 cells; 2 h at 4° C.; specific binding as percent of control. The essentials: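 Inhibition of 0.5 nM 125I-NGF binding to p75NTR on PC12 cells was measured with compounds at 50 μM during 2 h rotation at 4° C. Cell-bound radioactivity from glycerol-cushion centrifugation was gamma-counted, giving NSB-corrected binding as % of control specific binding.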

Setting [3] is: Table 4, test compound 50 μM, 0.5 nM 125I-BDNF, PC12 cells, 2 h at 4° C., specific binding as percent of control.

Read-outs that look alike come from different tables or passages of the source.

Regarding `Cc1cc([N+](=O)[O-])ccc1-c1ccc(C=C2SC(=O)NC2=O)o1` [Compound 92, 5-[5-(2-Methyl-4-nitrophenyl)furan-2-ylmethylene]-thiazolidine-2,4-dione], the activity at 50 µM in experiment [1] (setting [3]) was over 50%. In addition, the “NGF Activity % Maximal Binding” value in experiment [2] is reported as “* (50 < *)”.

In the case of `O=C1NC(=S)N/C1=C/c1ccc(-c2ccc(Cl)c([N+](=O)[O-])c2)o1` [Compound 93, 5-[5-(4-Chloro-3-nitrophenyl)furan-2-ylmethylene]-2-thioxo-imidazolidin-4-one], the activity at 50 µM in experiment [1] (setting [3]) is over 50%. In experiment [2], the “NGF Activity % Maximal Binding” value is on record as “* (50 < *)”.

Take `Cc1cc([N+](=O)[O-])ccc1-c1ccc(C=C2NC(=S)NC2=O)o1` [Compound 94, 5-[5-(2-Methyl-4-nitrophenyl)furan-2-ylmethylene]-2-thioxo-imidazolidin-4-one]: in experiment [1] (setting [3]), the activity at 50 µM is over 50%. Besides, the “NGF Activity % Maximal Binding” value in experiment [2] was “* (50 < *)”.

Regarding `Cc1cc(-c2ccc(C=C3NC(=S)NC3=O)o2)ccc1[N+](=O)[O-]` [Compound 95, 5-[5-(3-Methyl-4-nitrophenyl)furan-2-ylmethylene]-2-thioxo-imidazolidin-4-one], the activity at 50 µM in experiment [1] (setting [3]) was over 50%. In addition, in experiment [2], the “NGF Activity % Maximal Binding” value is “* (50 < *)”.

Turning to `Cc1cc(-c2ccc(C=C3C(=O)NC(=O)NC3=O)o2)ccc1[N+](=O)[O-]` [Compound 96, 5-[5-(3-Methyl-4-nitrophenyl)furan-2-ylmethylene]-pyrimidine-2,4,6-trione], the activity at 50 µM in experiment [1] is over 50%. Also, the “NGF Activity % Maximal Binding” value in experiment [2] is given as “* (50 < *)”.

On to `O=C(O)CCCN1C(=O)C(=Cc2ccc(-c3ccc([N+](=O)[O-])cc3)o2)SC1=S` [Compound 98, 4-{5-[5-(4-Nitrophenyl)furan-2-ylmethylene]-4-oxo-2-thioxo-thiazolidin-3-yl}-butyric acid], for which, in experiment [1] (setting [3]), the activity at 50 µM was over 50%. The “NGF Activity % Maximal Binding” value in experiment [2] is “* (50 < *)”.

As to `CCOC(=O)c1ccc(-c2ccc(C=C3C(=O)NC(=S)NC3=O)o2)cc1` [Compound 99, 4-[5-(4,6-Dioxo-2-thioxo-tetrahydro-pyrimidin-5-ylidenemethyl)furan-2-yl]benzoic acid ethyl ester], the activity at 50 µM in experiment [1] was over 50%. For the same molecule, the “NGF Activity % Maximal Binding” value in experiment [2] is reported as “* (50 < *)”.

`O=C1NC(=S)S/C1=C/c1ccc(-c2ccc([N+](=O)[O-])cc2Br)o1` [Compound 100, 5-[5-(2-Bromo-4-nitrophenyl)furan-2-ylmethylene]-2-thioxo-thiazolidin-4-one]: the activity at 50 µM in experiment [1] (setting [3]) was over 50%. For the same molecule, in experiment [2], the “NGF Activity % Maximal Binding” value was “* (50 < *)”.

Consider `COc1cc([N+](=O)[O-])ccc1-c1ccc(/C=C2\SC(=S)NC2=O)o1` [Compound 101, 5-[5-(2-Methoxy-4-nitrophenyl)furan-2-ylmethylene]-2-thioxo-thiazolidin-4-one], for which the activity at 50 µM in experiment [1] (setting [3]) was over 50%. Also, the “NGF Activity % Maximal Binding” value in experiment [2] is listed as “* (50 < *)”.

For the molecule `Cc1ccc(N2NC(=O)/C(=C/c3ccc(-c4ccc(S(N)(=O)=O)cc4)o3)C2=O)cc1` [Compound 102, 4-[5-(3,5-Dioxo-1-p-tolyl-pyrazolidin-4-ylidenemethyl)furan-2-yl]benzenesulfonamide], in experiment [1] (setting [3]), the activity at 50 µM was over 50%. For the same molecule, the “NGF Activity % Maximal Binding” value in experiment [2] was “* (50 < *)”.

Take `N=C1NC(=O)C(=Cc2ccc(-c3ccc([N+](=O)[O-])cc3Br)o2)S1` [Compound 103, 5-[5-(2-Bromo-4-nitrophenyl)furan-2-ylmethylene]-2-imino-thiazolidin-4-one]: the activity at 50 µM in experiment [1] (setting [3]) is over 50%. Further, the “NGF Activity % Maximal Binding” value in experiment [2] was “* (50 < *)”.

In the case of `CCc1ccc(N2NC(=O)/C(=C/c3ccc(-c4ccc(S(N)(=O)=O)cc4)o3)C2=O)cc1` [Compound 104, 4-{5-[1-(4-Ethylphenyl)-3,5-dioxo-pyrazolidin-4-ylidenemethyl]furan-2-yl}benzenesulfonamide], the activity at 50 µM in experiment [1] (setting [3]) was over 50%. For the same molecule, in experiment [2], the “NGF Activity % Maximal Binding” value is listed as “* (50 < *)”.

On to `NS(=O)(=O)c1ccc(-c2ccc(C=C3C(=O)NC(=S)NC3=O)o2)cc1` [Compound 105, 4-[5-(4,6-Dioxo-2-thioxo-tetrahydro-pyrimidin-5-ylidenemethyl)furan-2-yl]benzenesulfonamide], for which, in experiment [1], the activity at 50 µM was over 50%. Besides, the “NGF Activity % Maximal Binding” value in experiment [2] is reported as “* (50 < *)”.

As for `Cc1ccc(-c2ccc(C=C3C(=O)NC(=S)NC3=O)o2)cc1[N+](=O)[O-]` [Compound 106, 5-[5-(4-Methyl-3-nitrophenyl)furan-2-ylmethylene]-2-thioxo-dihydro-pyrimidine-4,6-dione], the activity at 50 µM in experiment [1] is over 50%. For the same molecule, the “NGF Activity % Maximal Binding” value in experiment [2] is “* (50 < *)”.

Regarding `COC(=O)c1cccc(-c2ccc(C=C3C(=O)NC(=S)NC3=O)o2)c1` [Compound 107, 3-[5-(4,6-Dioxo-2-thioxo-tetrahydro-pyrimidin-5-ylidenemethyl)furan-2-yl]benzoic acid methyl ester], the activity at 50 µM in experiment [1] was over 50%. Also, the “NGF Activity % Maximal Binding” value in experiment [2] is “* (50 < *)”.

For the molecule `O=C1NC(=S)N/C1=C/c1ccc(-c2ccc(C(=O)O)c(Cl)c2)o1` [Compound 108, 2-Chloro-4-[5-(5-oxo-2-thioxo-imidazolidin-4-ylidenemethyl)furan-2-yl]benzoic acid], in experiment [1] (setting [3]), the activity at 50 µM is over 50%. Besides, the “NGF Activity % Maximal Binding” value in experiment [2] was “* (50 < *)”.

With `Cc1c(-c2ccc(C=C3C(=O)NC(=O)NC3=O)o2)cccc1[N+](=O)[O-]` [Compound 109, 5-[5-(2-Methyl-3-nitrophenyl)furan-2-ylmethylene]-pyrimidine-2,4,6-trione], in experiment [1], the activity at 50 µM is over 50%. For the same molecule, in experiment [2], the “NGF Activity % Maximal Binding” value is “* (50 < *)”.

Turning to `CCN1C(=O)S/C(=C\c2ccc(-c3ccc([N+](=O)[O-])cc3)o2)C1=O` [Compound 110, 3-Ethyl-5-[5-(4-nitrophenyl)furan-2-ylmethylene]-thiazolidine-2,4-dione], in experiment [1] (setting [3]), the activity at 50 µM is over 50%. Besides, the “NGF Activity % Maximal Binding” value in experiment [2] is recorded as “* (50 < *)”.

With `CSC1=NC(=Cc2ccc(-c3ccc([N+](=O)[O-])cc3)o2)C(=O)S1` [Compound 111, 2-Methylsulfanyl-4-[5-(4-nitrophenyl)furan-2-ylmethylene]-4H-thiazol-5-one], the activity at 50 µM in experiment [1] (setting [3]) is over 50%. The “NGF Activity % Maximal Binding” value in experiment [2] is “* (50 < *)”.

Take `CSC1=NC(=Cc2ccc(-c3cccc([N+](=O)[O-])c3)o2)C(=O)S1` [Compound 112, 2-Methylsulfanyl-4-[5-(3-nitrophenyl)furan-2-ylmethylene]-4H-thiazol-5-one]: in experiment [1] (setting [3]), the activity at 50 µM is over 50%. In addition, in experiment [2], the “NGF Activity % Maximal Binding” value was “* (50 < *)”.

On to `CCOC(=O)CN1C(=O)S/C(=C\c2ccc(-c3ccc(Cl)c([N+](=O)[O-])c3)o2)C1=O` [Compound 113, {5-[5-(4-Chloro-3-nitrophenyl)furan-2-ylmethylene]-2,4-dioxo-thiazolidin-3-yl}-acetic acid ethyl ester], for which the activity at 50 µM in experiment [1] (setting [3]) was over 50%. For the same molecule, the “NGF Activity % Maximal Binding” value in experiment [2] is recorded as “* (50 < *)”.

For `Cc1ccc(-c2ccc(/C=C3/NC(=O)NC3=O)o2)cc1[N+](=O)[O-]` [Compound 114, 5-[5-(4-Methyl-3-nitrophenyl)furan-2-ylmethylene]-imidazolidine-2,4-dione], in experiment [1] (setting [3]), the activity at 50 µM is over 50%. The “NGF Activity % Maximal Binding” value in experiment [2] was “* (50 < *)”.

For `CCOC(=O)CN1C(=O)S/C(=C\c2ccc(-c3ccc(Cl)c(C(=O)O)c3)o2)C1=O` [Compound 115, 2-Chloro-5-[5-(3-ethoxycarbonylmethyl-2,4-dioxo-thiazolidin-5-ylidenemethyl)furan-2-yl]benzoic acid], the activity at 50 µM in experiment [1] (setting [3]) was over 50%. The “NGF Activity % Maximal Binding” value in experiment [2] is “* (50 < *)”.

For the molecule `CCOC(=O)CN1C(=O)S/C(=C/c2ccc(-c3cccc([N+](=O)[O-])c3)o2)C1=O` [Compound 116, {5-[5-(3-Nitrophenyl)furan-2-ylmethylene]-2,4-dioxo-thiazolidin-3-yl}-acetic acid ethyl ester], the activity at 50 µM in experiment [1] (setting [3]) is over 50%. In experiment [2], the “NGF Activity % Maximal Binding” value is reported as “* (50 < *)”.

With `CCOC(=O)CN1C(=O)S/C(=C\c2ccc(-c3ccc([N+](=O)[O-])cc3)o2)C1=O` [Compound 117, {5-[5-(4-Nitrophenyl)furan-2-ylmethylene]-2,4-dioxo-thiazolidin-3-yl}-acetic acid ethyl ester], in experiment [1] (setting [3]), the activity at 50 µM is over 50%. Besides, the “NGF Activity % Maximal Binding” value in experiment [2] is on record as “* (50 < *)”.

For `CCOC(=O)CN1C(=O)S/C(=C/c2ccc(-c3ccc([N+](=O)[O-])cc3OC)o2)C1=O` [Compound 118, {5-[5-(2-Methoxy-4-nitrophenyl)furan-2-ylmethylene]-2,4-dioxo-thiazolidin-3-yl}-acetic acid ethyl ester], the activity at 50 µM in experiment [1] (setting [3]) is over 50%. Also, in experiment [2], the “NGF Activity % Maximal Binding” value is listed as “* (50 < *)”.
